{
  "source": "patent US20150253330A1",
  "about": "“PRE-SELECTION OF SUBJECTS FOR THERAPEUTIC TREATMENT WITH AN HSP90 INHIBITOR BASED ON HYPOXIC STATUS” (Synta Pharmaceuticals Corp., priority 2012, published 2015)",
  "key": {"locally advanced or MBC": {"system": "locally advanced or MBC", "assay": "Phase 2 trial in metastatic breast cancer (MBC)", "format": "in vivo, human", "method": "Patients with locally advanced or MBC were treated with single agent of ganetespib at 200 mg/m^2 on a cycle of once weekly for 3 weeks, one week off, on a 28 day cycle. The primary endpoint of the trial was overall response rate using RECIST 1.1. Patients with HER2+ breast cancer were required to have received prior therapy with trastuzumab. No more than 3 lines of chemotherapy in the metastatic setting were permitted, but there was no limit on prior lines of hormone therapy. Patients were evaluated for response after 2 cycles. The trial used a Simon two-stage design requiring at least 3 responses among the first 22 patients, to allow expansion to a total of 40 patients. A total of 22 patients were treated with a median age of 51 years (38 to 70) and the following subtypes: 13 HER2+ (10 ER+/HER2+; 3 ER−/HER2+), 6 ER+/HER2−, and 3 ER−/PR−/HER2− (TNBC)."}, "[1]": {"system": "15 KRAS mutant NSCLC cell lines", "assay": "Viability of KRAS mutant NSCLC cell line panel, 72 h, CellTiter-Glo", "format": "cell-based", "settings": "across 15 KRAS mutant NSCLC cell lines in vitro", "method": "Breast cancer is a heterogeneous disease historically broken down into 4 subtypes. Various compounds were tested for their effects in cell viability assays using various breast cancer cell lines. Cellular viability was assessed using the CellTiter-Glo® Luminescent Cell Viability Assay (Promega, Madison, Wis., USA) according to the manufacturer's protocol. KRAS mutant NSCLC cell lines were seeded into 96-well plates based on optimal growth rates determined empirically for each line. Twenty-four hours after plating, cells were dosed with graded concentrations of ganetespib for 72 h. CellTiter-Glo® was added (50% v/v) to the cells, and the plates incubated for 10 min prior to luminescent detection in a SpectraMax® Plus 384 microplate reader (Molecular Devices, Sunnyvale, Calif., USA). Data were normalized to percent of control and IC50 values used to determine the sensitivity of each line. For the comparative analysis study with MEK and PI3K/mTOR inhibitors, A549, H2009, Calu-1, and H358 cells were treated with graded concentrations of ganetespib, AZD6244, or BEZ235 for 72 h and cell viability measured as above."}, "solid tumors [2]": {"system": "solid tumors", "assay": "Phase 1 trial of ganetespib in combination with docetaxel in solid tumors", "format": "in vivo, human", "method": "A trial to evaluate three dose-level combinations of docetaxel and ganetespib, administered on a three-week cycle, with the primary objective of determining an optimal dose for future clinical trials was performed. Docetaxel was administered as a one hour IV infusion on day 1 and ganetespib was administered as a one hour IV infusion on days 1 and 15. The dose level combinations evaluated were 150 mg/m^2 and 60 mg/m^2; 150 mg/m^2 and 75 mg/m^2; and 200 mg/m^2 and 75 mg/m^2 for ganetespib and docetaxel respectively. The standard of care dose level for docetaxel was 75 mg/m^2. A total of 19 patients received at least one dose of study treatment at the cut-off time. The median number of cycles of treatment was 4, with a range of 1 to 11 cycles of treatment. No prophylactic treatment for neutropenia was used. The combination of ganetespib at 150 mg/m^2 and docetaxel at 75 mg/m^2 was selected as the recommended dose."}, "[3]": {"assay": "Phase 2 study in solid tumors, twice-weekly infusion (safety, PK, response)", "format": "in vivo, human", "settings": "human, plasma, intravenous; patients, 1 hr infusion; read-out: Mean terminal half-life", "from_the_text": "(§1) Patients with solid tumors who had exhausted standard treatment options received ganetespib as a 1 hr infusion twice-weekly for 3 weeks (weeks) of a 28 day cycle until disease progression. Serial PK and pharmacodynamic samples were obtained during cycle 1. Safety assessments included frequency and grade of adverse events (AEs), laboratory parameters and ECG changes."}, "solid tumors [4]": {"system": "solid tumors", "assay": "Phase 2 study in solid tumors, twice-weekly infusion (safety, PK, response)", "format": "in vivo, human", "from_the_text": "as §1"}, "advanced NSCLC": {"system": "advanced NSCLC", "assay": "Phase 2 clinical trial in NSCLC by KRAS, EGFR and ALK mutation status", "format": "in vivo, human", "method": "Patients with advanced NSCLC who failed prior treatments received 200 mg/m^2 of ganetespib as a 1-hr infusion once weekly for 3 of a 4-wk cycle in a Simon two-stage study design assessing primary endpoint of PFS rate at 16 wks. Initial cohorts were defined by mutation status: A) EGFR mutation, KRAS wild-type B) EGFR wild-type, KRAS mutation C) EGFR wild-type, KRAS wild-type (WT). If ≧2/14 patients in A, B or C were progression-free at 16 weeks, enrollment increased to 23 patients for that cohort. Tumor response was assessed every 8 weeks. Cohort D was added to include 35 additional EGFR wild-type and KRAS wild-type patients with adenocarcinoma histology. FISH analysis for ALK translocation, was performed for Cohorts C and D."}, "[5]": {"system": "Chk1 and Chk2 phosphorylation", "assay": "Western blot of Chk1 and Chk2 phosphorylation after bleomycin in Detroit 562 cells", "format": "cell-based", "settings": "Detroit 562, 100 nM ganetespib 24 hours prior to bleomycin (5 μM)", "method": "Protein expression was measured at the indicated time points after bleomycin treatment.\nCell extracts from Detroit 562 head and neck cancer cells were treated with 100 nM of ganetespib 24 hours prior to receiving the DNA damaging agent bleomycin (5 μM). Protein expression was measured at the indicated time points after bleomycin treatment."}, "[6]": {"system": "EGFR and other client proteins", "assay": "Western blot of Hsp90 client proteins in Detroit 562 cells, 24 hr", "format": "cell-based", "settings": "Detroit 562, 24 hr", "from_the_text": "Head and neck (H/N) cancer refers to a group of biologically similar cancers originating from the upper autodigestive tract. First line therapies include EGFR inhibitors and platins. Modulation of EGFR and other client proteins by ganetespib was investigated in Detroit 562 H/N cancer cells."}, "[7]": {"settings": "Cohort C: EGFR wild-type, KRAS wild-type"}},
  "note": "Entries after “also recorded” stand apart in the source; their conditions may differ.",
  "data": [
    {"smiles": "CC(C)c1cc(-c2nnc(O)n2-c2ccc3c(ccn3C)c2)c(O)cc1O", "note": "[ganetespib]", "values": [
      {"measurement": "CBR (CR + PR + SD > 6 months)", "setting": "locally advanced or MBC; ER+/HER2− (N = 6)", "value": 0},
      {"measurement": "CR", "setting": "locally advanced or MBC; ER+/HER2− (N = 6)", "value": 0},
      {"measurement": "ORR", "setting": "locally advanced or MBC; ER+/HER2− (N = 6)", "value": 0},
      {"measurement": "PR", "setting": "locally advanced or MBC; ER+/HER2− (N = 6)", "value": 0},
      {"measurement": "CBR (CR + PR + SD > 6 months)", "setting": "locally advanced or MBC; HER2+ (N = 13)", "value": "2 (9%)"},
      {"measurement": "CR", "setting": "locally advanced or MBC; HER2+ (N = 13)", "value": 0},
      {"measurement": "ORR", "setting": "locally advanced or MBC; HER2+ (N = 13)", "value": "2 (9%)"},
      {"measurement": "PR", "setting": "locally advanced or MBC; HER2+ (N = 13)", "value": 2},
      {"measurement": "CBR (CR + PR + SD > 6 months)", "setting": "locally advanced or MBC; TNBC (N = 3)", "value": 0},
      {"measurement": "CR", "setting": "locally advanced or MBC; TNBC (N = 3)", "value": 0},
      {"measurement": "ORR", "setting": "locally advanced or MBC; TNBC (N = 3)", "value": 0},
      {"measurement": "PR", "setting": "locally advanced or MBC; TNBC (N = 3)", "value": 0},
      {"measurement": "CBR (CR + PR + SD > 6 months)", "setting": "locally advanced or MBC; Total (N = 22)", "value": "2 (9%)"},
      {"measurement": "CR", "setting": "locally advanced or MBC; Total (N = 22)", "value": 0},
      {"measurement": "PR", "setting": "locally advanced or MBC; Total (N = 22)", "value": "2 (9%)"},
      {"measurement": "ORR", "setting": "locally advanced or MBC; Total (N = 22), 200 mg/m^2 once weekly for 3 weeks, one week off", "value": "2 (9%)"},
      {"measurement": "Tolerability", "setting": "locally advanced or MBC; single agent, expected GI toxicity mild in nature and manageable", "value": "well tolerated"},
      {"measurement": "IC50", "setting": "[1]", "value": 24, "unit": "nM"},
      {"measurement": "Febrile neutropenia", "setting": "solid tumors [2]; four patients, ganetespib in combination with docetaxel", "value": 22, "unit": "%"},
      {"measurement": "Neutropenia (most common adverse event)", "setting": "solid tumors [2]; ganetespib in combination with docetaxel", "value": 67, "unit": "%"},
      {"measurement": "Recommended dose of ganetespib", "setting": "solid tumors [2]; in combination with docetaxel at 75 mg/m^2", "value": 150, "unit": "mg/m^2"},
      {"measurement": "Serious adverse events", "setting": "solid tumors [2]; nine patients, ganetespib in combination with docetaxel", "value": 50, "unit": "%"},
      {"measurement": "Shrinkage of target tumor lesions", "setting": "solid tumors [2]; one patient with cancer of the parotid gland, ganetespib with docetaxel", "value": "over 50%"},
      {"measurement": "Effect of ganetespib on docetaxel pharmacokinetics", "setting": "solid tumors [2]; patients", "value": "no effect"},
      {"measurement": "Pharmacokinetics of ganetespib alone versus prior to docetaxel", "setting": "solid tumors [2]; patients", "value": "pharmacokinetic similarity"},
      {"measurement": "half-life", "setting": "[3]", "value": "10 to 14", "unit": "h"},
      {"measurement": "NSCLC patients with durable SD, with tumor shrinkage", "setting": "solid tumors [4]; 6 months of treatment", "value": 2, "unit": "patients"},
      {"measurement": "DLTs (elevated transaminases)", "setting": "solid tumors [4]; in the 10 and 144 mg/m^2 cohorts", "value": "Two"},
      {"measurement": "Volume of distribution", "setting": "solid tumors [4]; patients", "value": "greater than total body water"},
      {"measurement": "PK linearity", "setting": "solid tumors [4]; patients, doses from 2-144 mg/m^2", "value": "linear PK"},
      {"measurement": "Accumulation in plasma", "setting": "solid tumors [4]; patients, twice-weekly dosing", "value": "no accumulation in plasma"},
      {"measurement": "Tolerability", "setting": "solid tumors [4]; twice-weekly administration", "value": "absence of severe liver, ocular, cardiac and renal toxicity; also recorded: well-tolerated"},
      {"measurement": "Response by RECIST in a patient with metastatic melanoma", "setting": "solid tumors [4]; twice-weekly dosing", "value": "confirmed durable PR"},
      {"measurement": "AEs reported in ≧20% of patients", "setting": "solid tumors [4]; twice-weekly, majority mild to moderate", "value": "fatigue, diarrhea, nausea, anemia, abdominal pain, constipation, anorexia, vomiting, and headache"},
      {"measurement": "Adverse events reported in ≧20% of patients", "setting": "advanced NSCLC; 200 mg/m^2 once weekly for 3 of a 4-wk cycle, generally grade 1-2", "value": "diarrhea, fatigue, nausea, anorexia, constipation, and dyspnea"},
      {"measurement": "Objective response rate (CR+PR)", "setting": "advanced NSCLC; ALK+ patients, 4/8", "value": 50, "unit": "%"},
      {"measurement": "Disease control rate", "setting": "advanced NSCLC; ALK+ patients, 7/8", "value": 88, "unit": "%"},
      {"measurement": "Patients with prolonged stable disease (≧16 weeks)", "setting": "advanced NSCLC; [7]", "value": "seven"},
      {"measurement": "Response in cohort C", "setting": "advanced NSCLC; [7]", "value": "durable partial response (PR)"},
      {"measurement": "ALK+ patients with tumor shrinkage in target lesions", "setting": "advanced NSCLC; eight ALK+ patients of cohorts C and D (six of eight)", "value": 75, "unit": "%"},
      {"measurement": "Tolerability", "setting": "advanced NSCLC; single agent 200 mg/m^2 once weekly, without severe liver, ocular, cardiovascular or renal toxicity", "value": "well-tolerated"},
      {"measurement": "Bleomycin-induced Chk1 and Chk2 phosphorylation", "setting": "[5]", "value": "blocked"},
      {"measurement": "Modulation of EGFR and other client proteins", "setting": "[6]", "value": "depletion of EGFR and JAK2"}
    ]}
  ]
}
